Legend:
Type in all cases: in vivo
Solanum nigrum (SOLNI) [1] = assay: Pre-emergence Test (glasshouse, percentage damage to the plant); conditions: 1000 g/ha unless otherwise stated, five-point scale
[2] = tested on: Echinochloa crus-galli (ECHCG); assay: as above; conditions: 1000 g/ha unless otherwise stated, five-point scale
Setaria faberi (SETFA) [3] = assay: Post-emergence Test (glasshouse, percentage damage to the plant); conditions: post-emergence spray, 1000 g/ha unless otherwise stated, evaluated after 13 days
Outline: (§1)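 Spray treatment of sown glasshouse pots at 1000 g/ha (default rate), vehicle acetone/water 50:50 plus 0.5% Tween 20. Read-out: percentage damage after 13 days, converted to a score where 5 denotes 81-100% and 1 denotes 0-20%.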

[4] = tested on: Echinochloa crus-galli (ECHCG); assay: as above; conditions: post-emergence spray, 1000 g/ha unless otherwise stated, evaluated after 13 days
Outline: (§2)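 Seeds sown in pots in glasshouse (24/16 °C day/night, 14 h light, 65% humidity), then sprayed with compound at 1000 g/ha unless stated, from acetone/water 50:50 with 0.5% Tween 20. Damage assessed 13 days later on five-point scale (1=0–20% to 5=81–100%).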

[5] = tested on: Amaranthus retoflexus (AMARE); assay: as above; conditions: post-emergence spray, 1000 g/ha unless otherwise stated, evaluated after 13 days
Outline: as §2

Solanum nigrum (SOLNI) [6] = assay: as above; conditions: post-emergence spray, 1000 g/ha unless otherwise stated, evaluated after 13 days
Outline: as §2

Lolium perenne (LOLPE) [7] = assay: as above; conditions: post-emergence spray, 1000 g/ha unless otherwise stated, evaluated after 13 days
Outline: as §2

[8] = tested on: Ipomoea hederacea (IPOHE); assay: as above; conditions: post-emergence spray, 1000 g/ha unless otherwise stated, evaluated after 13 days
Outline: as §1

[9] = tested on: Amaranthus retoflexus (AMARE); assay: Pre-emergence Test (glasshouse, percentage damage to the plant); conditions: 1000 g/ha unless otherwise stated, five-point scale
Lolium perenne (LOLPE) [10] = assay: as above; conditions: 1000 g/ha unless otherwise stated, five-point scale
Setaria faberi (SETFA) [11] = assay: as above; conditions: 1000 g/ha unless otherwise stated, five-point scale
[12] = tested on: Ipomoea hederacea (IPOHE); assay: as above; conditions: 1000 g/ha unless otherwise stated, five-point scale

CCn1c(C)c(-c2ccccc2C)c(=O)c(C(=O)O)c1-c1ccc(Cl)c(Cl)c1 [Compound 31, 2-(3,4-dichlorophenyl)-1-ethyl-6-methyl-5-(o-tolyl)-4-oxo-pyridine-3-carboxylic acid]
2 (2=21-40%): Post-emergence Test LOLPE, percentage damage to the plant (five-point scale) (Lolium perenne (LOLPE) [7]) | Post-emergence Test IPOHE, percentage damage to the plant (five-point scale) [8]
3 (3=41-60%): Post-emergence Test SETFA, percentage damage to the plant (five-point scale) (Setaria faberi (SETFA) [3]) | Post-emergence Test AMARE, percentage damage to the plant (five-point scale) [5]
1 (1=0-20%): percentage damage to the plant, ECHCG [2] | Post-emergence Test ECHCG, percentage damage to the plant (five-point scale) [4] | percentage damage to the plant, AMARE [9] | percentage damage to the plant, LOLPE (Lolium perenne (LOLPE) [10]) | percentage damage to the plant, IPOHE [12]
4 (4=61-80%): percentage damage to the plant, SOLNI (Solanum nigrum (SOLNI) [1]) | Post-emergence Test SOLNI, percentage damage to the plant (five-point scale) (Solanum nigrum (SOLNI) [6]) | percentage damage to the plant, SETFA (Setaria faberi (SETFA) [11])

CCn1c(C)c(-c2ccc(S(C)(=O)=O)cc2)c(=O)c(C(=O)O)c1-c1ccc(Cl)c(Cl)c1 [Compound 32, 2-(3,4-dichlorophenyl)-1-ethyl-6-methyl-5-(4-methylsulfonylphenyl)-4-oxo-pyridine-3-carboxylic acid]
1 (1=0-20%): percentage damage to the plant, SOLNI (Solanum nigrum (SOLNI) [1]) | Post-emergence Test AMARE, percentage damage to the plant (five-point scale) [5] | Post-emergence Test LOLPE, percentage damage to the plant (five-point scale) (Lolium perenne (LOLPE) [7]) | Post-emergence Test IPOHE, percentage damage to the plant (five-point scale) [8] | percentage damage to the plant, AMARE [9] | percentage damage to the plant, LOLPE (Lolium perenne (LOLPE) [10]) | percentage damage to the plant, IPOHE [12]
4 (4=61-80%): percentage damage to the plant, ECHCG [2] | Post-emergence Test ECHCG, percentage damage to the plant (five-point scale) [4] | percentage damage to the plant, SETFA (Setaria faberi (SETFA) [11])
3 (3=41-60%): Post-emergence Test SETFA, percentage damage to the plant (five-point scale) (Setaria faberi (SETFA) [3]) | Post-emergence Test SOLNI, percentage damage to the plant (five-point scale) (Solanum nigrum (SOLNI) [6])

CCn1c(C)c(-c2ccoc2)c(=O)c(C(=O)O)c1-c1ccc(Cl)c(Cl)c1 [Compound 33, 2-(3,4-dichlorophenyl)-1-ethyl-5-(3-furyl)-6-methyl-4-oxo-pyridine-3-carboxylic acid]
3 (3=41-60%): Post-emergence Test AMARE, percentage damage to the plant (five-point scale) [5] | Post-emergence Test SOLNI, percentage damage to the plant (five-point scale) (Solanum nigrum (SOLNI) [6]) | Post-emergence Test IPOHE, percentage damage to the plant (five-point scale) [8]
1 (1=0-20%): percentage damage to the plant, SOLNI (Solanum nigrum (SOLNI) [1]) | percentage damage to the plant, ECHCG [2] | Post-emergence Test SETFA, percentage damage to the plant (five-point scale) (Setaria faberi (SETFA) [3]) | percentage damage to the plant, AMARE [9] | percentage damage to the plant, LOLPE (Lolium perenne (LOLPE) [10]) | percentage damage to the plant, SETFA (Setaria faberi (SETFA) [11])
2 (2=21-40%): Post-emergence Test ECHCG, percentage damage to the plant (five-point scale) [4] | Post-emergence Test LOLPE, percentage damage to the plant (five-point scale) (Lolium perenne (LOLPE) [7]) | percentage damage to the plant, IPOHE [12]

CCn1c(C)c(-c2ccc(OCc3ccccc3)cc2)c(=O)c(C(=O)O)c1-c1ccc(Cl)c(Cl)c1 [Compound 34, 5-(4-benzyloxyphenyl)-2-(3,4-dichlorophenyl)-1-ethyl-6-methyl-4-oxo-pyridine-3-carboxylic acid]
1 (1=0-20%): percentage damage to the plant, ECHCG [2] | Post-emergence Test LOLPE, percentage damage to the plant (five-point scale) (Lolium perenne (LOLPE) [7]) | Post-emergence Test IPOHE, percentage damage to the plant (five-point scale) [8] | percentage damage to the plant, IPOHE [12]
4 (4=61-80%): Post-emergence Test AMARE, percentage damage to the plant (five-point scale) [5] | Post-emergence Test SOLNI, percentage damage to the plant (five-point scale) (Solanum nigrum (SOLNI) [6])
3 (3=41-60%): percentage damage to the plant, AMARE [9] | percentage damage to the plant, SETFA (Setaria faberi (SETFA) [11])
2 (2=21-40%): percentage damage to the plant, SOLNI (Solanum nigrum (SOLNI) [1]) | Post-emergence Test SETFA, percentage damage to the plant (five-point scale) (Setaria faberi (SETFA) [3]) | Post-emergence Test ECHCG, percentage damage to the plant (five-point scale) [4] | percentage damage to the plant, LOLPE (Lolium perenne (LOLPE) [10])

CCn1c(C)c(-c2ccnnc2)c(=O)c(C(=O)O)c1-c1ccc(Cl)c(Cl)c1 [Compound 35, 2-(3,4-dichlorophenyl)-1-ethyl-6-methyl-4-oxo-5-pyridazin-4-yl-pyridine-3-carboxylic acid;2,2,2-trifluoroacetic acid, 2,2,2-trifluoroacetate]
1 (1=0-20%): percentage damage to the plant, SOLNI (Solanum nigrum (SOLNI) [1]) | percentage damage to the plant, ECHCG [2] | Post-emergence Test AMARE, percentage damage to the plant (five-point scale) [5] | Post-emergence Test SOLNI, percentage damage to the plant (five-point scale) (Solanum nigrum (SOLNI) [6]) | Post-emergence Test LOLPE, percentage damage to the plant (five-point scale) (Lolium perenne (LOLPE) [7]) | Post-emergence Test IPOHE, percentage damage to the plant (five-point scale) [8] | percentage damage to the plant, AMARE [9] | percentage damage to the plant, LOLPE (Lolium perenne (LOLPE) [10]) | percentage damage to the plant, SETFA (Setaria faberi (SETFA) [11]) | percentage damage to the plant, IPOHE [12]
2 (2=21-40%): Post-emergence Test SETFA, percentage damage to the plant (five-point scale) (Setaria faberi (SETFA) [3]) | Post-emergence Test ECHCG, percentage damage to the plant (five-point scale) [4]

CCn1c(C)c(-c2ccc([N+](=O)[O-])cc2)c(=O)c(C(=O)O)c1-c1ccc(Cl)c(Cl)c1 [Compound 36, 2-(3,4-dichlorophenyl)-1-ethyl-6-methyl-5-(4-nitrophenyl)-4-oxo-pyridine-3-carboxylic acid]
3 (3=41-60%): percentage damage to the plant, SOLNI (Solanum nigrum (SOLNI) [1])
2 (2=21-40%): Post-emergence Test SOLNI, percentage damage to the plant (five-point scale) (Solanum nigrum (SOLNI) [6])
1 (1=0-20%): Post-emergence Test AMARE, percentage damage to the plant (five-point scale) [5] | Post-emergence Test LOLPE, percentage damage to the plant (five-point scale) (Lolium perenne (LOLPE) [7]) | Post-emergence Test IPOHE, percentage damage to the plant (five-point scale) [8] | percentage damage to the plant, AMARE [9] | percentage damage to the plant, LOLPE (Lolium perenne (LOLPE) [10]) | percentage damage to the plant, IPOHE [12]
5 (5=81-100%): percentage damage to the plant, ECHCG [2] | Post-emergence Test ECHCG, percentage damage to the plant (five-point scale) [4] | percentage damage to the plant, SETFA (Setaria faberi (SETFA) [11])
4 (4=61-80%): Post-emergence Test SETFA, percentage damage to the plant (five-point scale) (Setaria faberi (SETFA) [3])

CCn1c(C)c(-c2csc(Cl)c2)c(=O)c(C(=O)O)c1-c1ccc(Cl)c(Cl)c1 [Compound 37, 5-(5-chloro-3-thienyl)-2-(3,4-dichlorophenyl)-1-ethyl-6-methyl-4-oxo-pyridine-3-carboxylic acid]
3 (3=41-60%): Post-emergence Test IPOHE, percentage damage to the plant (five-point scale) [8]
1 (1=0-20%): percentage damage to the plant, SOLNI (Solanum nigrum (SOLNI) [1]) | percentage damage to the plant, ECHCG [2] | Post-emergence Test SETFA, percentage damage to the plant (five-point scale) (Setaria faberi (SETFA) [3]) | Post-emergence Test ECHCG, percentage damage to the plant (five-point scale) [4] | Post-emergence Test AMARE, percentage damage to the plant (five-point scale) [5] | Post-emergence Test LOLPE, percentage damage to the plant (five-point scale) (Lolium perenne (LOLPE) [7]) | percentage damage to the plant, AMARE [9] | percentage damage to the plant, LOLPE (Lolium perenne (LOLPE) [10]) | percentage damage to the plant, SETFA (Setaria faberi (SETFA) [11]) | percentage damage to the plant, IPOHE [12]
4 (4=61-80%): Post-emergence Test SOLNI, percentage damage to the plant (five-point scale) (Solanum nigrum (SOLNI) [6])

CCn1c(C)c(-c2ncco2)c(=O)c(C(=O)OC)c1-c1ccc(Cl)c(Cl)c1 [Compound 38, methyl 2-(3,4-dichlorophenyl)-1-ethyl-6-methyl-5-oxazol-2-yl-4-oxo-pyridine-3-carboxylate]
1 (1=0-20%): percentage damage to the plant, SOLNI (Solanum nigrum (SOLNI) [1]) | percentage damage to the plant, ECHCG [2] | Post-emergence Test SETFA, percentage damage to the plant (five-point scale) (Setaria faberi (SETFA) [3]) | Post-emergence Test ECHCG, percentage damage to the plant (five-point scale) [4] | Post-emergence Test AMARE, percentage damage to the plant (five-point scale) [5] | Post-emergence Test SOLNI, percentage damage to the plant (five-point scale) (Solanum nigrum (SOLNI) [6]) | Post-emergence Test LOLPE, percentage damage to the plant (five-point scale) (Lolium perenne (LOLPE) [7]) | Post-emergence Test IPOHE, percentage damage to the plant (five-point scale) [8] | percentage damage to the plant, AMARE [9] | percentage damage to the plant, LOLPE (Lolium perenne (LOLPE) [10]) | percentage damage to the plant, SETFA (Setaria faberi (SETFA) [11]) | percentage damage to the plant, IPOHE [12]
